Test system: GNS166 cells
Experiment: Label-free proteomics differential expression
Assay type: cell-based, human
Protocol: Proteomic studies were performed by the Proteomics Facility of the CIC bioGUNE by label-free relative quantification on nLC MS/MS. […] In both approaches, the top 20 enriched terms were plotted and the pathways were clustered using divisive hierarchical clustering based on pairwise Jaccard distances.

## C#CCN(Cc1cc2cc(OCCCN3CCCCC3)ccc2n1S(=O)(=O)c1ccccc1)C(=O)CCCCCCC(=O)NO [DDI]
Protein P60059
  LogFC SC61G_HUMAN: -0.7245
Protein P61619
  Direction S61A1_HUMAN: Down
  LogFC S61A1_HUMAN: -0.5192
Protein P61916 GN=NPC2
  LogFC NPC2_HUMAN: 2.258
Protein P62081
  Direction RS7_HUMAN: Down
  LogFC RS7_HUMAN: -0.4241
Protein P62191
  Direction PRS4_HUMAN: Down
  LogFC PRS4_HUMAN: -0.4147
Protein P62241 GN=RPS8
  LogFC RS8_HUMAN: -0.4178
Protein P62760 GN=VSNL1
  LogFC VISL1_HUMAN: 1.015
Protein P62841 GN=RPS15
  LogFC RS15_HUMAN: -0.6326
Protein P63096 GN=GNAI1
  LogFC GNAI1_HUMAN: 2.584
Protein P63167
  Direction DYL1_HUMAN: Down
  LogFC DYL1_HUMAN: -0.5083
Protein P67809 GN=YBX1
  LogFC YBOX1_HUMAN: -0.6246
Protein P68104
  Direction EF1A1_HUMAN: Down
  LogFC EF1A1_HUMAN: -0.2726
Protein P68431
  Direction H31_HUMAN: Down
  LogFC H31_HUMAN: -4.298
Protein P78344
  Direction IF4G2_HUMAN: Down
  LogFC IF4G2_HUMAN: -0.799
Protein P78347
  Direction GTF2I_HUMAN: Down
  LogFC GTF2I_HUMAN: -2.48
Protein P78504 GN=JAG1
  LogFC JAG1_HUMAN: 1.553
Protein P80404 GN=ABAT
  LogFC GABT_HUMAN: 1.722
Protein P82970 GN=HMGN5
  LogFC HMGN5_HUMAN: 1.669
Protein Q0ZGT2 GN=NEXN
  LogFC NEXN_HUMAN: 1.075
Protein Q2NKX8
  Direction ERC6L_HUMAN: Down
  LogFC ERC6L_HUMAN: -1.52
Protein Q2NL82
  Direction TSR1_HUMAN: Down
  LogFC TSR1_HUMAN: -0.7691
Protein Q2TAL8
  Direction QRIC1_HUMAN: Down
  LogFC QRIC1_HUMAN: -0.7876
Protein Q3YEC7
  Direction RABL6_HUMAN: Down
  LogFC RABL6_HUMAN: -0.9067
Protein Q4VC31 GN=CCDC58
  LogFC CCD58_HUMAN: 2.085
Protein Q5BJD5 GN=TMEM41B
  LogFC TM41B_HUMAN: 1.572
Protein Q5EB52
  Direction MEST_HUMAN: Down
  LogFC MEST_HUMAN: -1.179
Protein Q5J8M3 GN=EMC4
  LogFC EMC4_HUMAN: 0.9113
Protein Q5JVS0 GN=HABP4
  LogFC HABP4_HUMAN: 1.16
Protein Q5K4L6
  Direction S27A3_HUMAN: Down
  LogFC S27A3_HUMAN: -1.576
Protein Q5T440
  Direction CAF17_HUMAN: Down
  LogFC CAF17_HUMAN: -1.623
Protein Q5TBA9 GN=FRY
  LogFC FRY_HUMAN: 0.4095
Protein Q5VV42
  Direction CDKAL_HUMAN: Down
  LogFC CDKAL_HUMAN: -0.9728
Protein Q5VWZ2 GN=LYPLAL1
  LogFC LYPL1_HUMAN: 2.901
Protein Q5VYK3
  Direction ECM29_HUMAN: Down
  LogFC ECM29_HUMAN: -1.336
Protein Q6IN85
  Direction P4R3A_HUMAN: Down
  LogFC P4R3A_HUMAN: -0.9894
Protein Q6NW34
  Direction NEPRO_HUMAN: Down
  LogFC NEPRO_HUMAN: -2.0501
Protein Q6NZI2
  Direction CAVN1_HUMAN: Down
  LogFC CAVN1_HUMAN: -0.9705
Protein Q6P2Q9
  Direction PRP8_HUMAN: Down
  LogFC PRP8_HUMAN: -0.5767
Protein Q6P996 GN=PDXDC1
  LogFC PDXD1_HUMAN: -1.201
Protein Q6PJG2 GN=MIDEAS
  LogFC MDEAS_HUMAN: -1.368
Protein Q6PL24 GN=TMED8
  LogFC TMED8_HUMAN: 1.071
Protein Q6SJ93 GN=FAM111B
  LogFC F111B_HUMAN: 1.175
Protein Q6VMQ6
  Direction MCAF1_HUMAN: Down
  LogFC MCAF1_HUMAN: -0.5577
Protein Q6XZF7
  Direction DNMBP_HUMAN: Down
  LogFC DNMBP_HUMAN: -1.235
Protein Q6YN16 GN=HSDL2
  LogFC HSDL2_HUMAN: 0.7277
Protein Q6ZNB6
  Direction NFXL1_HUMAN: Down
  LogFC NFXL1_HUMAN: -0.9938
Protein Q6ZRP7
  Direction QSOX2_HUMAN: Down
  LogFC QSOX2_HUMAN: -1.536
Protein Q6ZRS2 GN=SRCAP
  LogFC SRCAP_HUMAN: -1.996
Protein Q6ZUT6
  Direction CCD9B_HUMAN: Down
  LogFC CCD9B_HUMAN: -1.697
Protein Q7KZF4 GN=SND1
  LogFC SND1_HUMAN: 0.6224
Protein Q7L0J3 GN=SV2A
  LogFC SV2A_HUMAN: 0.9586
Protein Q7L576
  Direction CYFP1_HUMAN: Down
  LogFC CYFP1_HUMAN: -0.7029
Protein Q7Z3K3
  Direction POGZ_HUMAN: Down
  LogFC POGZ_HUMAN: -1.413
Protein Q7Z3U7 GN=MON2
  LogFC MON2_HUMAN: -0.4314
Protein Q7Z4S6
  Direction KI21A_HUMAN: Down
  LogFC KI21A_HUMAN: -1.343
Protein Q08AD1
  Direction CAMP2_HUMAN: Down
  LogFC CAMP2_HUMAN: -0.4479
Protein Q8IUE6 GN=H2AC21
  LogFC H2A2B_HUMAN: -0.9956
Protein Q8IUF8 GN=RIOX2
  LogFC RIOX2_HUMAN: -1.969
Protein Q8IUR7 GN=ARMC8
  LogFC ARMC8_HUMAN: -2.228
Protein Q8IW35
  Direction CEP97_HUMAN: Down
  LogFC CEP97_HUMAN: -0.4382
Protein Q8IWT6 GN=LRRC8A
  LogFC LRC8A_HUMAN: -0.7869
Protein Q8IX12
  Direction CCAR1_HUMAN: Down
  LogFC CCAR1_HUMAN: -0.6634
Protein Q8IY67
  Direction RAVR1_HUMAN: Down
  LogFC RAVR1_HUMAN: -2.239
Protein Q8IYB5 GN=SMAP1
  LogFC SMAP1_HUMAN: -0.6906
Protein Q8IYM9
  Direction TRI22_HUMAN: Down
  LogFC TRI22_HUMAN: -2.3161
Protein Q8N1G4 GN=LRRC47
  LogFC LRC47_HUMAN: -0.5175
Protein Q8N2W9 GN=PIAS4
  LogFC PIAS4_HUMAN: 0.8535
Protein Q8N3C0
  Direction ASCC3_HUMAN: Down
  LogFC ASCC3_HUMAN: -0.4031
Protein Q8N3F8
  Direction MILK1_HUMAN: Down
  LogFC MILK1_HUMAN: -1.876
Protein Q8N5I4 GN=DHRSX
  LogFC DHRSX_HUMAN: -1.799
Protein Q8N6H7 GN=ARFGAP2
  LogFC ARFG2_HUMAN: -2.652
Protein Q8N6M3 GN=FITM2
  LogFC FITM2_HUMAN: 1.422
Protein Q8N201
  Direction INT1_HUMAN: Down
  LogFC INT1_HUMAN: -1.252
Protein Q8N684
  Direction CPSF7_HUMAN: Down
  LogFC CPSF7_HUMAN: -0.7682
Protein Q8N884
  Direction CGAS_HUMAN: Down
  LogFC CGAS_HUMAN: -1.895
Protein Q8NAV1 GN=PRPF38A
  LogFC PR38A_HUMAN: 1.096
